Values quoted from earlier work in patent US9566245B2, “Osmotic drug delivery system” (Supernus Pharmaceuticals, Inc., priority 2006, dated 2017).

Conditions: treprostinil as the free acid

- Absolute oral bioavailability: less than 10%
SMILES: CCCCC[C@H](O)CC[C@@H]1[C@H]2Cc3cccc(OCC(=O)O)c3C[C@H]2C[C@H]1O [treprostinil]
